For experiment [1], the system named is Human immunodeficiency virus. The experiment is described as follows: Antiviral activity against HIV upto 10 ug/mL. The experiment is classed as functional, organism-based.
A short description of experiment [2]: Cytotoxicity against human HCT 116 cells after 48 hrs by MTT assay. The experiment is classed as functional, cell-based. The note with it: HCT-116, 48 h. Background: Formazan colour is commonly taken as a measure of viable cells.
In experiment [3] the target is Hypoxia-inducible factor 1-alpha (Homo sapiens) (UniProt Q16665). The experiment is described as follows: Inhibition of HIF1alpha.

In general, EC50 refers to the concentration at which the effect is half-maximal. A high value points to lower potency in that assay.

The source made the active and inactive calls. The rule behind the calls is not given here.

Chain of Hypoxia-inducible factor 1-alpha (Homo sapiens) (Q16665 whole entry, looked up): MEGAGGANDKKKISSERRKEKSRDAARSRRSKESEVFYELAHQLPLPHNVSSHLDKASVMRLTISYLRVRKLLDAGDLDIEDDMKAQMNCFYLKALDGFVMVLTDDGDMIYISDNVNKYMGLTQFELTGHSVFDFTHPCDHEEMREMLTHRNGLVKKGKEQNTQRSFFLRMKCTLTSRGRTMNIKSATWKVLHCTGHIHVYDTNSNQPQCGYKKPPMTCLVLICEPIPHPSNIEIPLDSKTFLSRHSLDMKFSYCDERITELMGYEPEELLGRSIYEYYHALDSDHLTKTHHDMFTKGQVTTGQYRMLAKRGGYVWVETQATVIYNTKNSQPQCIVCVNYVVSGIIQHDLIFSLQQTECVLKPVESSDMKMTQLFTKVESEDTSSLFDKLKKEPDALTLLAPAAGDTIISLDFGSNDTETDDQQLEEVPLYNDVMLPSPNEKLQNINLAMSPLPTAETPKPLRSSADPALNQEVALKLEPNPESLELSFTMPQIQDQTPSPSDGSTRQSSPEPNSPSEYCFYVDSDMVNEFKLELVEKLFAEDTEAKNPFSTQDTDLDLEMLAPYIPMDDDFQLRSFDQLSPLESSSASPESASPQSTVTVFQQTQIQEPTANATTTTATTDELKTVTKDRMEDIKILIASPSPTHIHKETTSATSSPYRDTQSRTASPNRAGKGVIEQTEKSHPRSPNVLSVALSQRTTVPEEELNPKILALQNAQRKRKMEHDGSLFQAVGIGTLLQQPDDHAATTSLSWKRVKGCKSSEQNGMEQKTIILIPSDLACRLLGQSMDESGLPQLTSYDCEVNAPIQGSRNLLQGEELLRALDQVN

Take `CCC1CCC(=O)O[C@H]2[C@H](OC(C)=O)[C@H](OC(=O)c3ccccc3)[C@@]3(COC(C)=O)[C@H](OC(C)=O)[C@H](OC(C)=O)[C@@H]4[C@@H](OC(C)=O)[C@]3(O[C@]4(C)COC(=O)c3cccnc31)[C@@]2(C)O` (stereo partly specified) [OPPOSITINE A]: the result in experiment [1] and in experiment [3] was inactive. Moreover, it took 27 µM to reach a half-maximal effect in experiment [2] (EC50).
As for `CCC1CCC(=O)O[C@H]2[C@H](OC(C)=O)[C@H](OC(=O)c3ccccc3)[C@@]3(COC(C)=O)[C@H](OC(C)=O)[C@H](OC(C)=O)[C@@H]4[C@@H](OC(C)=O)[C@]3(O[C@]4(C)COC(=O)c3cccnc31)[C@@H]2C` (stereo partly specified) [OPPOSITINE B], the outcome in experiment [1] and in experiment [3] was inactive. In addition, the EC50 in experiment [2] came out at 26 µM.
